Patent US20090156582A1, “Pyrazole Compound” (priority 2005, published 2009)
pIC50: −log10 of the molar value.

Tests used:
[1] = system: nerve cell prepared from cerebral cortex of fetus of SD rat; experiment: Measurement of nerve cell death suppressive activity; assay type: cell-based; settings: rat cerebral cortex nerve cells, LY294002 50 μM final concentration, 24 hr, viable cell number by Cell Titer Glo; read-out: IC50 value (concentration of the test compound needed for 50% inhibition of nerve cell death)
Protocol: The cerebral cortex was taken from fetus of TP-14 pregnant SD rat (CLEA Japan, Inc.), and nerve cell was prepared using nerve cell culture system (SUMITOMO BAKELITE). The cerebral cortex was placed in enzymatic solution of cell dispersion solution kit (SUMITOMO BAKELITE), and incubated at 37° C. for 30 min. The cells were suspended by pipetting, and collected by centrifugation at 1000 rpm for 5 min. The supernatant was removed, and cell dispersion solution (SUMITOMO BAKELITE) was added. The cells were suspended by pipetting. The cell suspension was placed on removing solution (SUMITOMO BAKELITE), and the cells were collected by centrifugation at 1000 rpm for 5 min. The supernatant was removed, and the cells were suspended in nerve cell culture medium (SUMITOMO BAKELITE). 100 μl of the suspension was seeded on a poly D lysine•laminin 96 well plate (Becton, Dickinson and Company) at 1×10^5 cells/well. Then, the plate was cultured in a carbon dioxide gas incubator at 37° C. for 4 days. A test compound (50 μl) was added on the 96 well plate, and 50 μL/well of LY294002 was added at 50 μM of the final concentration. Then, the plate was cultured in a carbon dioxide gas incubator for 24 hr. The medium (100 μl) was sampled, and 100 μl of Cell Titer Glo solution (Promega) was added to count the viable cell number. […]

[2] = system: H4IIE-C3 cells; experiment: Measurement of sugar release suppressive action using cultured hepatocyte; assay type: cell-based; settings: Rattus norvegicus, H4IIEC3, 3 h, test compound 10 μM, Dexamethasone 500 nM and 8CPT-cAMP 0.1 mM, GSK3β inhibitor free group is 100%, read-out: sugar release suppressive activity (released glucose content, relative value)
Protocol: H4IIE-C3 cells (from rat liver) were seeded on 24 well or 96 well collagen coated plate (manufactured by Falcon), and cultured in Dulbecco's Modified Eagle Medium (DMEM: manufactured by GIBCO) containing 10% FBS, 25 mM Glucose until the cells became sub-confluent. Then, the cells were starvation treated with DMEM containing 0% FBS and 5.6 mM glucose. The medium was exchanged to DMEM containing test compound adjusted to 10 μM and sugar production stimulant (Dexamethasone (500 nM), 8CPT-cAMP (0.1 mM)), and the cells were pretreated for 5 hr. After washing with PBS, the cells were cultured in Phenol Red-free, Glucose-free DMEM containing the test compound and sugar production stimulant for 3 hr, and the glucose content released in the medium was measured. A glucose measurement kit (A-22189) manufactured by Molecular Probes was used for the glucose measurement. The sugar release suppressive activity is shown in a relative value when the released glucose content of a GSK3β inhibitor free group is 100%.

[3] = target: T1, recombinant GSK3β enzyme (human GSK3β) (Homo sapiens, UniProt P49841); experiment: Measurement of GSK3β inhibitory activity; assay type: biochemical; settings: glycogen synthase peptide substrate, Kinase Glo luminescence, read-out: IC50 (concentration of test compound needed for 50% inhibition of luminescent intensity), GSK3β inhibitory activity
T1 construct: FLAG (N); made in house; host or cells: Sf-21 insect cells, recombinant baculovirus (pFASTBAC1 / BAC-TO-BAC)
Summary of the method: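 FLAG-purified human GSK3β expressed in baculovirus-infected Sf-21 cells; reaction with 2.5 μM ATP (stock solution) at room temperature, 30 min. Residual ATP measured by Kinase-Glo luminescence; IC50 as concentration inhibiting 50% of luminescent intensity.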

T1 sequence (P49841 whole entry): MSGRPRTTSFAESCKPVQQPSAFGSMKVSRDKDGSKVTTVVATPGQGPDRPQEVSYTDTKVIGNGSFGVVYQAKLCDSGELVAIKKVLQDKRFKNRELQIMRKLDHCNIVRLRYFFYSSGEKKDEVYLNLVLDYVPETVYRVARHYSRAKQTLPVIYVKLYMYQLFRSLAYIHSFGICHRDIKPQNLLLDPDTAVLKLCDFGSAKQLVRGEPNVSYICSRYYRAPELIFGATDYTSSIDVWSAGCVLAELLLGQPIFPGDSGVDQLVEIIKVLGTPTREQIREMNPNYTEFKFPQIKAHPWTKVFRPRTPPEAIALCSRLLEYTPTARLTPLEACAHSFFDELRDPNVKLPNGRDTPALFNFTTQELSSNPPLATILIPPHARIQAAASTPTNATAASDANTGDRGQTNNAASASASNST

Row | Structure (SMILES) | pIC50 [3] | pIC50 [1] | activity at 10 µM [2] [%]
1 | O=C(Nc1c[nH]nc1C(=O)NC1CCCC1)c1cnccn1 [Example 79, N-{3-[(cyclopentylamino)carbonyl]-1H-pyrazol-4-yl}pyrazine-2-carboxamide] | – | 7.15 | –
2 | O=C(Nc1c[nH]nc1C(=O)Nc1ccccc1)c1cnccn1 [Example 98, N-{3-[(phenylamino)carbonyl]-1H-pyrazol-4-yl}pyrazine-2-carboxamide] | – | 6.36 | –
3 | Cc1cccc(C(=O)Nc2c[nH]nc2C(=O)NCCCOC(C)C)n1 [Example 430, N-(3-(((3-isopropoxypropyl)amino)carbonyl)-1H-pyrazol-4-yl)-6-methylpyridine-2-carboxamide] | – | – | 76
4 | CC(C)(C)OCCCNC(=O)c1n[nH]cc1NC(=O)c1ccccn1 [Example 455, N-(3-(((3-tert-butoxypropyl)amino)carbonyl)-1H-pyrazol-4-yl)pyridine-2-carboxamide] | – | – | 79
5 | CC(C)(CO)CNC(=O)c1n[nH]cc1NC(=O)c1ccccn1 [Example 470, N-(3-(((3-hydroxy-2,2-dimethylpropyl)amino)carbonyl)-1H-pyrazol-4-yl)pyridine-2-carboxamide] | – | – | 75
6 | Cc1ccc(C(=O)Nc2c[nH]nc2C(=O)NCC(F)(F)F)cn1 [Example 480, 6-methyl-N-(3-(((2,2,2-trifluoroethyl)amino)carbonyl)-1H-pyrazol-4-yl)pyridine-3-carboxamide] | – | – | 69
7 | O=C(/C=C/c1ccccc1)Nc1c[nH]nc1C(=O)N1CCCC1 [compound 045] | 6.57 | – | –
8 | O=C(Cc1ccc(-c2ccccc2)cc1)Nc1c[nH]nc1C(=O)NC1CCCC1 [compound 065] | 6.63 | – | –
9 | CCCN(CCC)S(=O)(=O)c1ccc(C(=O)Nc2c[nH]nc2C(=O)NC2CCCC2)cc1 [compound 074] | 6.52 | – | –
10 | O=C(CC1CCCC1)Nc1c[nH]nc1C(=O)Nc1ccccc1 [compound 081] | 6.97 | – | –
11 | O=C(CCc1ccccc1)Nc1c[nH]nc1C(=O)Nc1ccccc1 [compound 087] | 6.94 | – | –
12 | O=C(Cc1c[nH]c2ccccc12)Nc1c[nH]nc1C(=O)Nc1ccccc1 [compound 089] | 6.42 | – | –
13 | O=C(Nc1ccccc1)c1n[nH]cc1NC(=O)c1c[nH]c2ccccc12 [compound 097] | > 7.00 | – | –
14 | O=C(Nc1c[nH]nc1C(=O)Nc1ccccc1)c1cnccn1 [compound 098] | > 7.00 | – | –
15 | O=C(CC1CCCC1)Nc1c[nH]nc1C(=O)NCc1ccccc1 [compound 099] | 6.99 | – | –
16 | O=C(Nc1c[nH]nc1C(=O)NCc1ccco1)c1ccccc1 [compound 152] | > 7.00 | – | –
17 | O=C(Nc1c[nH]nc1C(=O)NCc1ccco1)c1ccc(C(F)(F)F)cc1 [compound 154] | 6.57 | – | –
18 | COc1ccc(C(=O)Nc2c[nH]nc2C(=O)NCc2ccco2)cc1 [compound 155] | > 7.00 | – | –
19 | O=C(Nc1c[nH]nc1C(=O)NCc1ccco1)c1ccc(F)cc1F [compound 156] | > 7.00 | – | –
20 | O=C(Nc1c[nH]nc1C(=O)NCc1ccco1)c1ccc(Oc2ccccc2)cc1 [compound 157] | 6.85 | – | –
21 | CC(=O)Nc1cccc(C(=O)Nc2c[nH]nc2C(=O)NCc2ccco2)c1 [compound 159] | > 7.00 | – | –
22 | O=C(Nc1c[nH]nc1C(=O)NCc1ccco1)c1ccc(OC(F)(F)F)cc1 [compound 160] | 6.71 | – | –
23 | O=C(Nc1c[nH]nc1C(=O)NCc1ccco1)c1ccc2[nH]ccc2c1 [compound 161] | > 7.00 | – | –
24 | O=C(Nc1c[nH]nc1C(=O)NCc1ccco1)c1cnccn1 [compound 162] | > 7.00 | – | –
25 | CC(C)NC(=O)c1n[nH]cc1NS(=O)(=O)C[C@]12CCC(CC1=O)C2(C)C [compound 197] | 6.96 | – | –
26 | CS(=O)(=O)Nc1c[nH]nc1C(=O)NC1CCCC1 [compound 227, N-cyclopentyl-4-methanesulfonylamino-1H-pyrzole-3-carboxamide] | 6.56 | – | –
27 | CC1(C)C2CC[C@@]1(CS(=O)(=O)Nc1c[nH]nc1C(=O)NC1CCCC1)C(=O)C2 [compound 240] | 6.68 | – | –
28 | CC1(C)C2CC[C@@]1(CS(=O)(=O)Nc1c[nH]nc1C(=O)NCCc1ccccc1)C(=O)C2 [compound 305] | > 7.00 | – | –

Second part, led by results:

Row | pIC50 [3] | Structure (SMILES) | pIC50 [1] | activity at 10 µM [2] [%]
29 | > 7.00 | Cc1cccc(C(=O)Nc2c[nH]nc2C(=O)NCCC#N)n1 [Example 387, N-(3-(((2-cyanoethyl)amino)carbonyl)-1H-pyrazol-4-yl)-6-methylpyridine-2-carboxamide] | – | 69
30 | > 7.00 | N#CCCNC(=O)c1n[nH]cc1NC(=O)c1ccco1 [Example 412, N-(2-cyanoethyl)-4-(2-furoylamino)-1H-pyrazole-3-carboxamide] | – | 74
31 | > 7.00 | Cc1cccc(C(=O)Nc2c[nH]nc2C(=O)NCCC#N)c1 [Example 413, N-(2-cyanoethyl)-4-(3-methylbenzoylamino)-1H-pyrazole-3-carboxamide] | – | 64
32 | > 7.00 | N#CCCNC(=O)c1n[nH]cc1NC(=O)c1cccs1 [Example 416, N-(2-cyanoethyl)-4-(2-thienylcarbonylamino)-1H-pyrazole-3-carboxamide] | – | 62
33 | > 7.00 | N#CCCNC(=O)c1n[nH]cc1NC(=O)c1ccccc1 [Example 420, 4-(benzoylamino)-N-(2-cyanoethyl)-1H-pyrazole-3-carboxamide] | – | 62
34 | > 7.00 | Cc1cccc(C(=O)Nc2c[nH]nc2C(=O)NCCOC(C)C)n1 [Example 426, N-(3-(((2-isopropoxyethyl)amino)carbonyl)-1H-pyrazol-4-yl)-6-methylpyridine-2-carboxamide] | – | 55
35 | > 7.00 | CC(=O)Nc1c[nH]nc1C(=O)NC1CCCC1 [compound 059] | – | –
36 | > 7.00 | O=C(COc1ccccc1)Nc1c[nH]nc1C(=O)NC1CCCC1 [compound 062] | – | –
37 | > 7.00 | O=C(NC1CCCC1)c1n[nH]cc1NC(=O)C1CCCCC1 [compound 063] | – | –
38 | > 7.00 | CCOCC(=O)Nc1c[nH]nc1C(=O)NC1CCCC1 [compound 064] | – | –
39 | > 7.00 | O=C(CCc1ccccc1)Nc1c[nH]nc1C(=O)NC1CCCC1 [compound 067] | – | –
40 | > 7.00 | COc1ccccc1CC(=O)Nc1c[nH]nc1C(=O)NC1CCCC1 [compound 068] | – | –
41 | > 7.00 | O=C(Cc1c[nH]c2ccccc12)Nc1c[nH]nc1C(=O)NC1CCCC1 [compound 069] | – | –
42 | > 7.00 | O=C(Nc1c[nH]nc1C(=O)NC1CCCC1)c1ccccc1 [compound 070] | – | –
43 | > 7.00 | O=C(Nc1c[nH]nc1C(=O)NC1CCCC1)c1ccc(C(F)(F)F)cc1 [compound 071] | – | –
44 | > 7.00 | COc1ccc(C(=O)Nc2c[nH]nc2C(=O)NC2CCCC2)cc1 [compound 072] | – | –
45 | > 7.00 | O=C(Nc1c[nH]nc1C(=O)NC1CCCC1)c1ccc(F)cc1F [compound 073] | – | –
46 | > 7.00 | CC(=O)Nc1cccc(C(=O)Nc2c[nH]nc2C(=O)NC2CCCC2)c1 [compound 075] | – | –
47 | > 7.00 | O=C(Nc1c[nH]nc1C(=O)NC1CCCC1)c1ccc(OC(F)(F)F)cc1 [compound 076] | – | –
48 | > 7.00 | O=C(Nc1c[nH]nc1C(=O)NC1CCCC1)c1ccc2[nH]ccc2c1 [compound 077] | – | –
49 | > 7.00 | O=C(NC1CCCC1)c1n[nH]cc1NC(=O)c1c[nH]c2ccccc12 [compound 078] | – | –
50 | > 7.00 | O=C(Nc1c[nH]nc1C(=O)NC1CCCC1)c1cnccn1 [compound 079] | – | –
51 | > 7.00 | O=C(COc1ccccc1)Nc1c[nH]nc1C(=O)Nc1ccccc1 [compound 083] | – | –
52 | > 7.00 | O=C(Nc1ccccc1)c1n[nH]cc1NC(=O)C1CCCCC1 [compound 084] | – | –
53 | > 7.00 | CCOCC(=O)Nc1c[nH]nc1C(=O)Nc1ccccc1 [compound 085] | – | –
